PMC12329412, “Study of the mass balance, biotransformation, and safety of [^14C]IBI351 in healthy Chinese subjects” (Journal of Biomedical Research, 2024)
“And” between values parts separate entries of the source, which are not always exact repeats. Equal values may be shown once. Read-outs that look alike come from different tables or passages of the source. Marks after values point to notes of the source that are not given here.

How the values were obtained:
Type in all cases: in vivo, human
[1] = Mass balance: recovery of total radioactivity in urine and feces; details: for Radioactivity excreted in feces / Radioactivity excreted in urine / Total radioactive excretion in urine and feces: 0–312 h, mean±SD, n=6
Protocol: (§1) This was a single-center, single-dose, open-trial study involving six healthy Chinese male subjects. They received a single dose of 600 mg/150 μCi [^14C]IBI351 on day 1 after fasting for at least 10 h. Blood, urine, and fecal samples were collected at specified time points or intervals within 15 days (0–336 h) following the administration of [^14C]IBI351.
Urine and fecal samples were collected for mass balance analysis and metabolite profiling. Urine samples were collected in polyethylene containers during the following time periods (in hours): −24–0 (pre-dosing), 0–4, 4–8, 8–12, 12–24, and at 24-h intervals thereafter (post-dosing) and stored at 4 ℃ during the collection period. Fecal samples were collected during the following periods (in hours): −24–0 (pre-dosing), 0–24, and at 24-h intervals thereafter (post-dosing). The collection of urine and fecal samples was terminated when the TRA in the combined biological samples (urine + feces) from each subject exceeded 90% of the administered dose. Additionally, the radioactivity in samples collected over two consecutive days should be less than 1% of the administered dose. The samples were weighed in special containers and stored at −10 ℃ to −30 ℃ until analysis.
(§2) Blood, plasma, urine, and fecal samples were analyzed for TRA using the Tri-Carb model 3110 TR liquid scintillation counter (PerkinElmer, Waltham, MA, USA). Blood samples were divided into two parallel portions (0.5 g) and completely burned by OX-501 oxidizer (R.J. Harvey, Tappan, NY, USA). Finally, the samples were analyzed by liquid scintillation counting. Plasma (0.5 g) and urine (1 g) samples were directly analyzed by liquid scintillation counting. Fecal samples were first homogenized with isopropanol/water (50/50, v/v). The excretion of radioactivity in the urine and feces, referring to the cumulative recovery of total radioactive material in each time period, was defined as the sum of the percentage of TRA in the urine and feces relative to the administered dose. The TRA in each sample during a time period and the percentage of TRA related to the administered dose (% of dose) were calculated using the following formula: % of dosage = (TRA detected in the sample/radioactive dosage) × 100%.

[2] = Plasma pharmacokinetics of IBI351 parent drug (HPLC-MS/MS) after a single oral dose of [14C]IBI351
Protocol: as §1
(§3) The endpoint of blood analysis was a plasma radioactivity concentration less than 1/8 of the baseline plasma value. Venous blood samples were collected from the six subjects (01101–01106) at the following time points (in hours): −1 (pre-dosing), 0.5, 1, 2, 4, 8, 12, 24, and at 24-h intervals (post-dosing). Whole blood aliquots were collected for radioactivity measurement, and blood samples were centrifuged (1500 [± 10] g, 4 ℃, 10 min) for metabolite identification. All samples were stored at −10–−30 ℃ until analysis.
Plasma, urine, and fecal samples were analyzed using high-performance liquid chromatography-tandem mass spectrometry (HPLC-MS/MS; ABSciex, Carlsbad, CA, USA) to determine the concentrations of IBI351. Samples containing stable isotope-labeled GF1927 (C32H27D3ClFN6O4, with a molecular weight of 620.10) as an internal standard were subjected to protein precipitation with acetonitrile and separated on a Waters Xbridge C18 column (3.5 μm, 50 mm × 2.1 mm; Waters, Milford, MA, USA) at 40 ℃. The mobile phase consisted of deionized water (with 0.1% formic acid) and acetonitrile (with 0.1% formic acid), delivered by gradient elution at 0.6 mL/min, and the gradient elution program was 30% phase B in 0–0.29 min, 80% phase B in 0.30–1.80 min, 30% phase B in 1.81–3.00 min. The detection was performed on a Triple Quad 6500+ tandem mass spectrometer in the positive ion electrospray ionization mode. Quantification was conducted by multiple reaction monitoring of the transitions m/z 617.3→358.2 for IBI351 and m/z 622.2→363.1 for internal standard, respectively. The calibration range for IBI351 in human plasma was 5–5000 ng/mL.
Statistical analysis of TRA in the whole blood and plasma, concentrations of IBI351, corresponding pharmacokinetic parameters, and urine and fecal excretion data was performed using Microsoft Excel 2010. The pharmacokinetic parameters were calculated using Pkanalix 2021R1 (Lixoft, Antony, France). The drug-time curve was plotted using WinNonlin® (version 8.3, Certara). Data were analyzed using the SAS 9.4 software and presented as mean ± standard deviation.

[3] = Ratio of total radioactivity in whole blood to plasma; details: Mean±SD, n=6
Protocol: as §3, §2
The radioactivity in the whole blood and plasma is represented by the TRA ratio between the whole blood and plasma.

[4] = individual subjects, rows in order 01101–01106, listed as [14C]IBI351
[5] = IBI351 parent drug in plasma, single oral 600 mg/150 μCi, n=6, mean±SD

## C=CC(=O)N1CCN2c3c(c(=O)n(-c4c(C)ccnc4C(C)C)c4nc(-c5c(O)cccc5F)c(Cl)cc34)N(C)C(=O)C2C1 (stereo not drawn) [IBI351]
[1]
  Radioactivity excreted in feces: approximately 86.30 % of dose
  Radioactivity excreted in urine: 9.27 % of dose
  Total radioactive excretion in urine and feces: 95.56 % of dose
[1]; listed as [14C]IBI351
  Radioactivity excreted in feces: 86.30±4.90 % of dose
  Radioactivity excreted in urine: 9.27±1.83 % of dose
  Total radioactive excretion in urine and feces: 95.56±3.41 % of dose
[1]; listed as [^14C]IBI351
  Radioactivity excreted in feces: 86.30 % of dose
  Radioactivity excreted in urine: 9.27 % of dose
  Total radioactive excretion in urine and feces: 95.56 % of dose
[1]; at 144 h (six days) post-dose
  Excretion rate: less than 1.00%
[1]; individual subjects, rows in order 01101–01106, 01105 normalized to 100.00%, listed as [14C]IBI351
  Urine and feces recovered radioactivity: 92.36 % of dose and 94.47 % of dose and 91.45 % of dose and 96.48 % of dose and 100.00 % of dose and 98.61 % of dose
[1]; [4]
  Feces recovered radioactivity: 80.29 % of dose and 87.83 % of dose and 92.67 % of dose and 89.35 % of dose and 80.67 % of dose and 86.99 % of dose
  Urine recovered radioactivity: 11.69 % of dose and 7.48 % of dose and 11.16 % of dose and 8.65 % of dose and 7.33 % of dose and 9.26 % of dose
[1]; of the administered dose, from 0 h to 192 h
  TRA excreted into the feces: 86.30%
[1]; of the administered dose, period printed as 0–192 h
  TRA excreted into the urine and feces: 95.56%
[1]; within 120 h (five days) after administration, on average
  Total radioactive content excreted in urine and feces within 120 h: more than 90.00%
[2]; IBI351 parent drug in plasma
  quantifiable time point: 168 h
[2]; [5]
  AUC0–last: 2.65×10^4±5.90×10^3 h·ng Eq./mL
  CL/F: 25.6 (± 5.56) L/h and 25.6±5.56 L/h
  Cmax: 3.90×10^3±8.02×10^2 ng Eq./mL
[2]; IBI351 parent drug in plasma, single oral 600 mg/150 μCi, n=6, mean±SD, listed as IB1351
  Cmax: 3.90 × 10^3 (± 8.02 × 10^2) ng Eq./mL
[2]; male, human, oral, 600 mg, IBI351 parent drug in plasma, read-out: mean Cmax
  Cmax: 3900 ng/mL
[2]; male, human, plasma, single oral 600 mg/150 μCi, read-out: renal clearance (converted)
  CL renal: 30.3 mL/min
[2]; male, human, IBI351 parent drug in plasma, single oral 600 mg/150 μCi, fasted, n=6, median (min, max)
  Tmax: 1 h
[2]; male, human, IBI351 parent drug in plasma, single oral 600 mg/150 μCi, n=6, mean±SD
  half-life: 17.4 ± 11.9 h
[2]; male, human, IBI351 parent drug in plasma, single oral 600 mg/150 μCi, n=6, mean±SD, read-out: MRT0–last
  MRT last: 8.24 ± 1.1 h
[2]; male, human, IBI351 parent drug in plasma, single oral 600 mg/150 μCi, n=6, mean±SD, read-out: Vz/F
  Vd/F: 581 ± 323 L
[3]; 0.50 h post-dose
  Ratio of whole blood to total plasma radioactivity: 0.655±0.0841
[3]; 1.00 h post-dose
  Ratio of whole blood to total plasma radioactivity: 0.716±0.0588
[3]; 4.00 h post-dose
  Ratio of whole blood to total plasma radioactivity: 0.606±0.0323
[3]; 12.0 h post-dose
  Ratio of whole blood to total plasma radioactivity: 0.571±0.0884
[3]; 24.0 h post-dose
  Ratio of whole blood to total plasma radioactivity: 0.626±0.0402
[3]; 48.0 h post-dose
  Ratio of whole blood to total plasma radioactivity: 0.670±0.0320
